Assays:
Format in all cases: in vivo
[1] = system: green rice leaf-hoppers (Nephotettix cincticeps); assay: Nephotettix test (rice seedlings, immersion); settings: single active compound, 0.32 ppm
Procedure: (§1) To produce a suitable preparation of active compound, 1 part by weight of active compound is mixed with the stated amounts of solvent and emulsifier, and the concentrate is diluted with emulsifier-containing water to the desired concentration.
Rice seedlings (Oryza sativa) are treated by immersion in the active compound preparation of the desired concentration and are populated with green rice leaf-hoppers (Nephotettix cincticeps) while the leaves are still moist.
After the desired period, the destruction is determined in %. 100% means that all leafhoppers have been killed; 0% means that none of the leafhoppers have been killed. The kill figures determined form the basis for calculations with Colby's formula.

[2] = system: Heliothis virescens caterpillars; assay: Heliothis virescens test (soya bean shoots, immersion); settings: single active compound, 0.32 ppm
Procedure: (§2) To produce a suitable active compound preparation, 1 part by weight of active compound is mixed with the stated amounts of solvent and emulsifier, and the concentrate is diluted with emulsifier-containing water to the desired concentration.
Soya bean shoots (Glycine max) are treated by immersion in the active compound preparation of the desired concentration and are populated with Heliothis virescens caterpillars while the leaves are still moist.
(§3) After the desired period, the destruction is determined in %. 100% means that all caterpillars have been killed; 0% means that none of the caterpillars have been killed. The kill figures determined are calculated using Colby's formula.

[3] = system: diamond-back moth caterpillars (Plutella xylostella); assay: Plutella test (cabbage leaves, immersion); settings: single active compound, 1.6 ppm
Procedure: as §2
Cabbage leaves (Brassica oleracea) are treated by immersion in the active compound preparation of the desired concentration and are populated with diamond-back moth caterpillars (Plutella xylostella) while the leaves are still moist.
as §3

[4] = system: fall army worm caterpillars (Spodoptera exigua); assay: Spodoptera exigua test (cabbage leaves, immersion); settings: single active compound, 8 ppm
Procedure: as §1
Cabbage leaves (Brassica oleracea) are treated by immersion in the active compound preparation of the desired concentration and are populated with fall army worm caterpillars (Spodoptera exigua) while the leaves are still moist.
as §3

[5] = system: common spider mite (Tetranychus urticae); assay: Tetranychus test (OP-resistant/spray treatment, bean plants); settings: single active compound, 0.32 ppm, OP-resistant, spray treatment
Procedure: OP-resistant/spray Treatment
as §2
Bean plants (Phaseolus vulgaris) which are severely infested with all stages of the common spider mite (Tetranychus urticae) are sprayed with an active compound preparation of the desired concentration.
After the desired period, the action is determined in %. 100% means that all spider mites have been killed; 0% means that none of the spider mites have been killed. The kill figures determined are calculated using Colby's formula.

Compound | Percentage destruction after 6 days [1] [%] | Percentage destruction after 3 days [2] [%] | Percentage destruction after 3 days [3] [%] | Percentage destruction after 6 days [4] [%] | Percentage destruction after 14 days [5] [%]
CC1(C)C(C=C(Cl)Cl)C1C(=O)OC(C#N)c1ccc(F)c(Oc2ccccc2)c1 (stereo not shown) [Betacyfluthrin, betacyfluthrin] | 50 | 75 | 80 | 90 | 
CCC(C)(C)C(=O)OC1=C(c2ccc(Cl)cc2Cl)C(=O)OC12CCCCC2 [Ex. (I-b-1)] | 0 | 0 | 0 | 0 | 0
COP(N)(=O)SC (stereo not shown) [Methamidophos, methamidophos] |  |  |  |  | 0
